Results: PubChem BioAssay (NCI)
“And” between values parts separate entries of the source, which are not always exact repeats. Equal entries are not always repeated.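 Cells were grown in 96-well plates and exposed to each compound for 48 hours at five concentrations; endpoints were interpolated linearly between bracketing concentrations, or set to the highest concentration if not reached. GI50 = concentration required for 50% inhibition of growth. TGI: total growth inhibition.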

Tests used:
Assay in all cases: growth of human tumour cells (NCI), 48 h
SF-295 CNS = system: SF-295 CNS
K-562 leukemia = system: K-562 leukemia
UACC-62 melanoma = system: UACC-62 melanoma
OVCAR-5 ovarian = system: OVCAR-5 ovarian
A498 renal = system: A498 renal
HCT-116 colon = system: HCT-116 colon
SF-268 CNS = system: SF-268 CNS
U251 CNS = system: U251 CNS
SW-620 colon = system: SW-620 colon
RPMI-8226 leukemia = system: RPMI-8226 leukemia

Row | SMILES | TGI (SF-295 CNS) [µM] | TGI (K-562 leukemia) [µM] | TGI (UACC-62 melanoma) [µM] | TGI (OVCAR-5 ovarian) | TGI (A498 renal) | TGI (HCT-116 colon) | TGI (SF-268 CNS) [µM] | TGI (U251 CNS) | TGI (SW-620 colon) [µM] | TGI (RPMI-8226 leukemia) [µM] | GI50 (SF-295 CNS) [µM] | GI50 (K-562 leukemia) [µM] | GI50 (OVCAR-5 ovarian) [µM] | GI50 (A498 renal) [µM] | GI50 (HCT-116 colon) [µM] | GI50 (SF-268 CNS) [µM] | GI50 (U251 CNS) [µM] | GI50 (SW-620 colon) [µM] | GI50 (RPMI-8226 leukemia) [µM] | GI50 (UACC-62 melanoma) [µM]
1 | N/N=C(/C(=O)Nc1cccc(Cl)c1)C(C(=O)c1ccc(O)cc1O)C1OC(=O)c2ccccc21 (stereo not drawn) | > 100 | > 100 | > 100 | > 100 µM | > 100 µM | > 100 µM | > 100 | > 100 µM | > 100 | > 100 |  |  |  |  |  |  |  |  |  | 
2 | CN1CCN(C(=O)C(C)(C)c2ccc(C(=O)Nc3cn4cc(-c5ccncc5)ccc4n3)cc2)CC1 | 30.8 | > 100 |  | 7.16 µM | 0.418 µM | > 100 µM | 10.5 | > 100 µM | > 56 | 1.35 | 0.482 | 0.194 | 0.405 | 0.157 | 0.0802 | 0.38 | 0.332 | 0.185 | 0.201 | 
3 | CCOC(=O)CC[C@H](NC(=O)c1nc[nH]c1[N+](=O)[O-])C(=O)OCC | > 100 | > 100 | > 100 |  | > 100 µM | > 100 µM | > 100 | > 100 µM |  | > 100 |  |  |  |  |  |  |  |  |  | 
4 | O=S(=O)(/C=C/c1ccc(F)cc1)Cc1ccc(CS(=O)(=O)/C=C/c2ccc(F)cc2)cc1 | > 100 | > 100 | > 100 | > 100 µM |  | > 100 µM | > 100 | > 100 µM | > 100 | > 100 |  |  |  |  |  |  |  |  |  | 
5 | C[C@@H]1[C@H](C)N1CC(O)Cn1ccnc1[N+](=O)[O-] (stereo partly drawn) | > 100 | > 100 | > 100 | > 100 µM | > 100 µM | > 100 µM | > 100 | > 100 µM | > 100 |  |  |  |  |  |  |  |  |  |  | 
6 | CC1(C)C2CCC13C(=O)C1OC3(C2)C2C(=O)c3ccccc3C(=O)C12 (stereo not drawn) |  | > 100 |  | > 100 µM |  | > 100 µM | > 100 | > 100 µM |  |  |  | > 100 | > 100 |  | > 100 | > 100 | > 100 |  |  | 
7 | OC1(C23CC4CC(CC(C4)C2)C3)CSCC1(O)C12CC3CC(CC(C3)C1)C2 (stereo not drawn) | > 100 | > 100 | > 100 |  |  | > 100 µM | > 100 |  | > 100 | > 100 |  |  |  |  |  |  |  |  |  | 
8 | Cc1ccc2c(c1)-c1c3c(nn1-c1ccccc1)-c1ccccc1SC3O2 (stereo not drawn) | > 100 | > 100 |  | > 100 µM | > 100 µM | > 100 µM | > 100 | > 100 µM | > 100 | > 100 |  |  |  |  |  |  |  |  |  | 
9 | CC[C@@]1(O)C(=O)OCc2c1cc1n(c2=O)Cc2cc3cc4c(cc3nc2-1)OCO4 | 0.025 | > 100 | 0.00717 | 0.122 µM and 0.0372 µM | 0.0685 µM and 0.114 µM | 0.136 µM and 1.27 µM |  | 0.0171 µM and 0.0613 µM | 3.18 |  |  | < 0.0114 |  | 0.00137 | < 0.001 |  |  |  |  | 
10 | O=C1NNC2(C(=O)N1)c1ccccc1-c1ccccc12 | > 10 | > 10 | > 10 |  |  | > 10 µM | > 10 |  | > 10 | > 10 |  |  |  |  |  |  |  |  |  | 
11 | C/C(O)=C(/C=N/C(=S)Nc1ccc(S(N)(=O)=O)cc1)C(=O)Nc1ccccc1C | > 100 | > 100 | > 100 | > 100 µM |  | > 100 µM | > 100 | > 100 µM | > 100 | 97.3 |  |  |  |  |  |  |  |  |  | 
12 | CC(=O)Nc1ccc(S(=O)(=O)N/N=C/CN2C(=O)c3ccccc3C2=O)cc1 | > 100 | > 100 | > 100 |  | > 100 µM | > 100 µM | > 100 | > 100 µM | > 100 | > 100 |  |  |  |  |  |  |  |  |  | 
13 | COc1cc(C(=O)c2c(-c3ccccc3)oc3c(OC)cccc23)cc(OC)c1OC | 1.96 | > 100 | > 96.5 | > 100 µM | 0.0696 µM |  | > 100 | > 100 µM | > 100 | > 100 | 0.0363 | 0.0368 | 0.158 | 0.0212 |  | 0.128 | 0.0514 | 0.0497 | 0.112 | 0.0522
14 | NNC(=O)C1CCC(=O)N1S(=O)(=O)c1ccccc1 (stereo not drawn) | > 100 | > 100 | > 100 | > 100 µM |  | > 100 µM | > 100 | > 100 µM | > 100 | > 100 |  |  |  |  |  |  |  |  |  | 
15 | CCCCOC(=O)N1CCN(/[N+]([O-])=N/Oc2ccc([N+](=O)[O-])cc2[N+](=O)[O-])CC1 | > 100 | > 100 | 26.8 | 11.8 µM |  | 3.53 µM | 25.4 | 21.8 µM | > 100 | 5.47 | 28.6 | 5.97 | 3.53 |  | 2.07 | 6.42 | 5.85 | 3.38 | 2.3 | 13.6
16 | COc1cc(OC)c(C/C=C/c2ccccc2)cc1O |  | 33 | 29 | 69.9 µM | 28.8 µM | 30 µM | 34.4 | 30.4 µM | 38 | 38 |  |  |  |  |  |  |  |  |  | 
17 | O=C1c2cc3c(cc2[C@@H]2[C@H]1c1ccc([N+](=O)[O-])cc1C(=O)N2CCCBr)OCO3 |  | 0.444 | < 0.01 |  | < 0.01 µM |  | 0.394 |  | 3.64 |  | < 0.01 | < 0.0121 | < 0.0158 | < 0.01 |  | < 0.01 | < 0.01 | < 0.01 |  | < 0.01
18 | CC1CCC/C1=C(/I)C(=O)c1ccccc1 (stereo not drawn) | > 100 | > 100 | > 100 | > 100 µM |  | > 100 µM | > 100 | > 100 µM | > 100 | > 100 |  |  |  |  |  |  |  |  |  | 
19 | Cc1nc(Nc2ccccc2)sc1C(=O)CC(=O)C(=O)Nc1c(C(C)C)cccc1C(C)C | > 100 | > 100 | > 100 | > 100 µM |  | > 100 µM | > 100 | > 100 µM | > 100 |  |  |  |  |  |  |  |  |  |  | 
20 | CC1=NN(C(=O)c2ccccc2O)C(=O)/C1=C/c1ccc(O)cc1 | > 100 | > 100 | 5.06 | > 100 µM |  | > 100 µM | > 100 | > 100 µM | > 100 | > 100 |  |  |  |  |  |  |  |  |  | 
21 | CCOC(=O)/C(C1=NCCN1)=C(\O)c1ccccc1 | > 100 | > 100 | > 100 | > 100 µM |  | > 100 µM | > 100 | > 100 µM | > 100 | > 100 |  |  |  |  |  |  |  |  |  | 
